What was measured:
ST3Gal-II = target: T1, ST3Gal-II (Rattus norvegicus, UniProt Q11205); test: Serial transfer of sialic acid from donor via 5′-CMP to acceptors (scheme-II); type: biochemical; settings: 0.15 mM donor; 2 mM 5′-CMP with core-2 donors
T1 construct: purchased Calbiochem
T1 sequence (Q11205 1-350): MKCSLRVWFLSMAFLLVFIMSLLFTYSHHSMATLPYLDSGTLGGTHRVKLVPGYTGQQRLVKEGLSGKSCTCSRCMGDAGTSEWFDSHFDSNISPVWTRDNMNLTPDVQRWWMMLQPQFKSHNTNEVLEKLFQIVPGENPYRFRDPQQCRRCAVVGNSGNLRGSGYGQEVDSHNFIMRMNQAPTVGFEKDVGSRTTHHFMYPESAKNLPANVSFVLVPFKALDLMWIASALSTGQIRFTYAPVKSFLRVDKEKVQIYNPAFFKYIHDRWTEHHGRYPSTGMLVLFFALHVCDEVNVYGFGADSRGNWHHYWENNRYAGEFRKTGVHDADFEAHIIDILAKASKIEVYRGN

HL60 = test: Reversible sialyltransferase activity in cell extract; type: biochemical, human; settings: HL60 (leukemia) cell extract, 1.0 mM 5′-CMP, 16 h, pH 6.0
Source text: (§1) Thus, [9-^3H[4]] was used as donor and D-Fucβ1,3GalNAcα-O-Bn as acceptor in the presence of 5′-CMP and solubilized cell extracts. Of the cells tested, human prostate cancer cell lines LNCaP and PC-3 contained significant reversible sialyltransferase activity.

LNCaP = test: as above; type: biochemical, human; settings: LNCaP (prostate) cell extract, 1.0 mM 5′-CMP, 16 h, pH 6.0
Source text: as §1

LS180 = test: as above; type: biochemical, human; settings: LS180 (colon) cell extract, 1.0 mM 5′-CMP, 16 h, pH 6.0
Source text: as §1

MCF-7 = test: as above; type: biochemical, human; settings: MCF-7 (breast) cell extract, 1.0 mM 5′-CMP, 16 h, pH 6.0
Source text: as §1

MDA-MB-435 = test: as above; type: biochemical, human; settings: MDA-MB-435 (breast) cell extract, 1.0 mM 5′-CMP, 16 h, pH 6.0
Source text: as §1

MDA-MB231 = test: as above; type: biochemical, human; settings: MDA-MB231 (breast) cell extract, 1.0 mM 5′-CMP, 16 h, pH 6.0
Source text: as §1

PC3 = test: as above; type: biochemical, human; settings: PC3 (prostate) cell extract, 1.0 mM 5′-CMP, 16 h, pH 6.0
Source text: as §1

T47D = test: as above; type: biochemical, human; settings: T47D (breast) cell extract, 1.0 mM 5′-CMP, 16 h, pH 6.0
Source text: as §1

ZR75-1 = test: as above; type: biochemical, human; settings: ZR75-1 (breast) cell extract, 1.0 mM 5′-CMP, 16 h, pH 6.0
Source text: as §1

amount of acceptor [5] required for comparable transfer (ST3Gal-II): ~6 mM
Substance: [9-^3H]NeuAcα2,3Galβ1,3(6-O-SulfoGlcNAcβ1,6)GalNAcα-O—Al [[4]]
Transfer of [9-3H]NeuAc from [9-3H[4]] to [5] (HL60): 0.76 CPM × 10^−3/mg protein
Transfer of [9-3H]NeuAc from [9-3H[4]] to [5] (LNCaP): 19.89 CPM × 10^−3/mg protein
Transfer of [9-3H]NeuAc from [9-3H[4]] to [5] (LS180): 0.01 CPM × 10^−3/mg protein
Transfer of [9-3H]NeuAc from [9-3H[4]] to [5] (MCF-7): 0.57 CPM × 10^−3/mg protein
Transfer of [9-3H]NeuAc from [9-3H[4]] to [5] (MDA-MB-435): 0.69 CPM × 10^−3/mg protein
Transfer of [9-3H]NeuAc from [9-3H[4]] to [5] (MDA-MB231): 0.09 CPM × 10^−3/mg protein
Transfer of [9-3H]NeuAc from [9-3H[4]] to [5] (PC3): 4.72 CPM × 10^−3/mg protein
Transfer of [9-3H]NeuAc from [9-3H[4]] to [5] (T47D): 0.52 CPM × 10^−3/mg protein
Transfer of [9-3H]NeuAc from [9-3H[4]] to [5] (ZR75-1): 1.32 CPM × 10^−3/mg protein
